According to patent US11286263B2, “Macrocyclic fluorine substituted indole derivatives” (The Broad Institute, Inc., priority 2017, dated 2022):
Several values for one entry are separate records, joined by “and”; a condition that tells them apart may be missing. Equal values may be shown once. Where a name gives a salt, the structure may show the parent alone. Read-outs that look alike come from different tables or passages of the source.

Key:
AMO-1 = assay: Antiproliferation assay AMO-1 (Assay 7); format: cell-based; settings: AMO-1 cells, CellTiter-Glo, single determinations, read-out: IC50 Antiproli AMO-1
Summary of the method: (§1)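 Cells plated in treatment plates plus a day 0 reference plate; incubated 72 h at 37 °C; CellTiter-Glo added, 10 min incubation, luminescence read; day 0 plate read at time zero.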

SUDHL10 [1] = assay: Induction of caspase-3/7 activity, SUDHL10 (Assay 4); format: cell-based; settings: SUDHL10 cells
Summary of the method: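 DLBCL lines treated with compounds for 3 h at 37° C.; caspase-3/7 activity read by Caspase-Glo 3/7 luminescence. Medium-only background subtracted; EC50 fitted with bottom fixed at 1 and top set to reference compound's maximal induction.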

SUDHL10 [2] = assay: Induction of cytotoxicity, SUDHL10 (Assay 6); settings: read-out: IC50 Cytotox SUDHL10 [M] (median), SUDHL10 cells, 5 h, CellTiter-Glo
SUDHL5 = assay: Antiproliferation assay SUDHL5 (Assay 7); format: cell-based; settings: SUDHL5 cells, CellTiter-Glo, median, read-out: IC50 Antiproli SUDHL5 [M] (median)
Summary of the method: as §1

[3] = Homo sapiens, SU-DHL10, 3 h, Caspase-Glo 3/7, median

Row | EC50 (SUDHL10 [1]; 3 h, Caspase-Glo 3/7, median) [nM] | IC50 (SUDHL5; 72 h) [M] | EC50 (SUDHL10 [1]; [3]) [nM] | IC50 (SUDHL5; Homo sapiens, SU-DHL-5, 72 h) [M] | SMILES | IC50 (AMO-1; Homo sapiens, AMO1, 72 h) [nM] | IC50 (SUDHL10 [2]) [M] | IC50 (SUDHL10 [2]; Homo sapiens, SU-DHL10, 5 h) [M] | IC50 (AMO-1; 72 h) | IC50 (AMO-1; 72 h, listed as 02) [nM]
1 | 1000 | 7.5e-07 | – | – | CCc1c2c(nn1C)COCCCCn1c(C(=O)O)c(CCCOc3cccc4ccccc34)c3ccc(F)c-2c31 (single isomer, unassigned; enantiomer 1) [Example 7, 3-ethyl-4-fluoro-2-methyl-7-{3-[(naphthalen-1-yl)oxy]propyl}-2,10,11,12,13,15-hexahydro-pyrazolo[4′,3′:9,10][1,6]oxazacycloundecino[8,7,6-hi]indole-8-carboxylic acid-N-ethylethanamine salt (enantiomer 1)] | 1910 | 1.3e-06 | – | – | –
2 | – | 6.4e-07 | 1300 | – | Cc1c2c(nn1C)COCCCCn1c(C(=O)O)c(CCCOc3cccc4ccccc34)c3ccc(F)c-2c31 (single isomer, unassigned; enantiomer 1) [Example 3, 4-fluoro-2,3-dimethyl-7-[3-(naphthalen-1-yloxy)propyl]-2,10,11,12,13,15-hexahydropyrazolo-[4′,3′:9,10][1,6]oxazacycloundecino[8,7,6-hi]indole-8-carboxylic acid-N-ethylethanamine salt (enantiomer 1)] | 2000 | – | 1.1e-06 | – | –
3 | 1600 | 6.2e-07 | – | – | CCc1c2c(nn1C)COCCCCn1c(C(=O)O)c(CCCOc3ccc(F)c4ccccc34)c3ccc(F)c-2c31 (single isomer, unassigned; enantiomer 1) [Example 27, 3-ethyl-4-fluoro-7-{3-[(4-fluoronaphthalen-1-yl)oxy]propyl}-2-methyl-2,10,11,12,13,15-hexahydropyrazolo[4′,3′:9,10][1,6]oxazacycloundecino[8,7,6-hi]indole-8-carboxylic acid-N-ethylethanamine salt (enantiomer 1)] | – | 1.8e-06 | – | 1330 nM and 2530 nM | –
4 | 380 | 2.7e-07 | – | – | CCc1c2c(nn1C)COCCCCn1c(C(=O)O)c(CCCOc3cccc4cc(F)ccc34)c3ccc(F)c-2c31 (single isomer, unassigned; enantiomer 1) [Example 22, 3-ethyl-4-fluoro-7-{3-[(6-fluoronaphthalen-1-yl)oxy]propyl}-2-methyl-2,10,11,12,13,15-hexahydropyrazolo[4′,3′:9,10][1,6]oxazacycloundecino[8,7,6-hi]indole-8-carboxylic acid-N-ethylethanamine salt (enantiomer 1)] | – | 5.5e-07 | – | – | –
5 | 940 | 6.8e-07 | – | – | CCc1nn(C)c2c1-c1c(F)ccc3c(CCCOc4cccc5cc(F)ccc45)c(C(=O)O)n(c13)CCCCOC2 (single isomer, unassigned; enantiomer 1) [Example 39, 3-ethyl-4-fluoro-7-{3-[(6-fluoronaphthalen-1-yl)oxy]propyl}-1-methyl-1,10,11,12,13,15-hexahydropyrazolo[4′,3′:9,10][1,6]oxazacycloundecino[8,7,6-hi]indole-8-carboxylic acid-N-ethylethanamine salt (enantiomer 1)] | – | 1e-06 | – | 1720 nM | –
6 | 11000 | 1.4e-06 | – | – | CCc1c2c(nn1C)COCCCCn1c(C(=O)O)c(CCCOc3cccc4cc(F)ccc34)c3ccc(F)c-2c31 (single isomer, unassigned; enantiomer 2) [Example 23, 3-ethyl-4-fluoro-7-{3-[(6-fluoronaphthalen-1-yl)oxy]propyl}-2-methyl-2,10,11,12,13,15-hexahydropyrazolo[4′,3′:9,10][1,6]oxazacycloundecino[8,7,6-hi]indole-8-carboxylic acid-N-ethylethanamine salt (enantiomer 2)] | – | 9e-06 | – | – | –
7 | 680 | 2.9e-07 | – | – | Cc1c2c(nn1C)COCCCCn1c(C(=O)O)c(CCCOc3cccc4cc(F)ccc34)c3ccc(F)c-2c31 (single isomer, unassigned; enantiomer 1) [Example 13, 4-fluoro-7-{3-[(6-fluoronaphthalen-1-yl)oxy]propyl}-2,3-dimethyl-2,10,11,12,13,15-hexahydro-pyrazolo[4′,3′:9,10][1,6]oxazacycloundecino[8,7,6-hi]indole-8-carboxylic acid-N-ethylethanamine salt (enantiomer 1)] | – | 8e-07 | – | 747 nM and 564 nM | –
8 | – | – | 1300 | 1.4e-06 | Cc1c2c(nn1C)COCCCCn1c(C(=O)O)c(CCCOc3cccc4ccccc34)c3ccc(F)c-2c31 (racemic) [Example 2, (rac)-4-fluoro-2,3-dimethyl-7-[3-(naphthalen-1-yloxy)propyl]-2,10,11,12,13,15-hexahydro-pyrazolo[4′,3′:9,10][1,6]oxazacycloundecino[8,7,6-hi]indole-8-carboxylic acid] | 2460 | – | 1.6e-06 | – | 1910
